The record followed here is PubChem BioAssay AID1845194 (Molecular Pharmacology Branch, DTP, NCI, 2023).

The test system of this test is 287954-098-R-J1 tumor spheroid viability. The test can be described thus: Anticancer human tumor 287954-098-R-J1 patient-derived Ewing sarcoma cell line growth inhibition. Conditions: spheroids with HUVEC and MSC; for viability, T/C: stronger effect = lower value. An excerpt: Multicellular complex tumor spheroid response to DNA repair inhibitors in combination with DNA-damaging drugs
This study explores the anticancer activities of DNA-damaging drugs and inhibitors of DNA damage repair, both as single agents and in combinations. Complex tumor spheroids comprised of malignant cells, endothelial cells and mesenchymal stem cells served as an in vitro model for human solid tumors. This model system incorporates physiologically relevant features and patient-derived or established malignant cell lines with clinically relevant genetic alterations from many tumor types. Twenty-six patient-derived or established malignant cell lines were evaluated representing sarcoma, melanoma, small cell lung cancer (SCLC), non-small cell lung cancer (NSCLC), as well as bladder, ovarian and pancreatic cancers. The concentration ranges selected for each drug and investigational agent were based upon clinically achievable concentrations if the clinical Cmax of the agent was known.
Compounds. The drugs and compounds olaparib (NSC753686), talazoparib (NSC767125), berzosertib (NSC777718), elimusertib (NSC800525), nedisertib (NSC802822), VX-984 (NSC792969), AZD-1390 (NSC803789), temozolomide (NSC362856), topotecan (NSC609699), trabectedin (NSC813783), staurosporine (NSC755774), and gemcitabine (NSC613327) were obtained from the National Cancer Institute (NCI) Developmental Therapeutics Program Chemical Repository. The FDA-approved anticancer drug set is available from the Developmental Therapeutics Program at https://dtp.cancer.gov/organization/dscb/obtaining/available_plates.htm. […] The stock solutions were prepared in dimethyl sulfoxide (DMSO, Sigma-Aldrich, St. Louis, MO, cat. D2650) at 400-fold the tested concentration and stored at -70 degrees C. Prior to their use, the stock solutions were diluted in fresh medium and the final DMSO concentration in the assay was 0.25% (v/v). All drugs and investigational agents were tested over a range starting from a high concentration at or near the clinical Cmax and decreasing in half-log increments. If the clinical Cmax for an agent had not been determined, the highest concentration tested was 10 microM.
Cell Lines. The patient-derived cancer cell (PDC) lines: 156681-154-R-J1-PDC, 283228-195-R-J1-PDC, 287954-098-R-J1-PDC, 292921-168-R-J2-PDC, 349418-098-R-PDC, 425362-245-T-J1-PDC, 556581-035-R-J1-PDC, and BL0293-F563-PDC were received from the NCI Patient-Derived Models Repository (PDMR, https://pdmr.cancer.gov). The established cell lines HS-SY-2 (RRID:CVCL_8719), MPNST, and SYO-1 (RRID:CVCL_7146) were obtained from the Sloan Kettering Institute. The alveolar soft parts sarcoma cell line ASPS-1 (RRID:CVCL_S738) was established at the NCI and grown from internal seed stocks. The following established cell lines were purchased from the American Type Culture Collection (ATCC, Manassas, VA): G-401 (ATCC, cat. CRL-1441, RRID:CVCL_0270), SW982 (ATCC, cat. HTB-93, RRID:CVCL_1734), VA-ES-BJ (ATCC, cat. CRL-2138, RRID:CVCL_1785), NCI-H719 (ATCC, cat. CRL-5837, RRID:CVCL_1582), NCI-H196 (ATCC, cat. CRL-5823, RRID:CVCL_1509), NCI-H841 (ATCC, cat. CRL-5845, RRID:CVCL_1595), NCI-H1618 (ATCC, cat. CRL-5879, RRID:CVCL_1480), NCI-H1876 (ATCC, cat. CRL-5902, RRID:CVCL_1503), DMS 114 (ATCC, cat. CRL-2066; RRID:CVCL_1174), NCI-H211 (ATCC, cat. CRL-5824; RRID:CVCL_1529), and SW 1271 (ATCC, cat. CRL-2177, RRID:CVCL_1716). The small cell lung cancer cell line COR-L88 was purchased from Sigma-Aldrich (cat. 92031917-1VL, RRID:CVCL_1141). The non-small cell lung cancer cell lines NCI-H226 (RRID:CVCL_1544) and NCI-H322M (RRID:CVCL_1557) were established at the NCI and grown from internal seed stocks. Pooled donor human umbilical vein endothelial cells (HUVEC, Lonza, cat. CC-2519) and human mesenchymal stem cells (hMSC, Lonza, cat. PT-2501) were purchased from Lonza (Walkersville, MD).
Cell Culture. All cells were maintained in an incubator at 37 degrees C and 5% CO2 with 95% humidity. […]

Setting [1] is: compound alone, run of 10/25/2019.

Values joined by “and” are separate entries in the source; they are usually repeats but may differ in a detail not shown here. Identical values can stand only once. Some results are limits rather than exact numbers.
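Also: spheroids exposed to compound for 7 days before viability readout.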
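For viability, T/C in this document: luminescent signal taken as surrogate of viable cell content; 100% = DMSO vehicle control viability and lower means growth inhibition.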

On to `CC(C)n1c(=O)n(C)c2cnc3cc(F)c(-c4ccc(OCCCN5CCCCC5)nc4)cc3c21`, for which the viability, T/C is, setting by setting: (compound 0.0316 µM) 110% (2×) and 102%; (compound 0.1 µM) 102% (2×) and 101%; (compound 0.316 µM) 110% and 98.5% and 105%; (compound 1 µM) 102% and 110% and 112%; (compound 3.16 µM) 108% and 107% (2×); (compound 10 µM) 11% and 86.6% and 25.5%. In addition, the IC50 (curve of compound) is 6240 nM and > 10000 nM and 7030 nM.

Regarding `CC1COCCN1c1cc(-c2ccnn2C)c2ccnc(-c3ccn[nH]3)c2n1` (configuration not stated), the viability, T/C (compound 0.0316 µM) was 107% and 114% and 106%; the viability, T/C (compound 0.1 µM) is 78.3% and 89.9% and 97.7%; the viability, T/C (compound 0.316 µM) is 22.6% and 21.9% and 32.2%; the viability, T/C (compound 1 µM) is 6.79% and 3.9% and 8.44%; the viability, T/C (compound 3.16 µM) is 1.99% and 1.74% and 1.91%; the viability, T/C (compound 10 µM) is 3.29% and 2.26% and 3.3%. Further, the IC50 (curve of compound) is 180 nM and 197 nM and 232 nM.

Turning to `CC[C@@]1(O)C(=O)OCc2c1cc1n(c2=O)Cc2cc3c(CN(C)C)c(O)ccc3nc2-1`, the viability, T/C by setting is: (compound 0.003 µM) 104% [middle of 10 runs]; (compound 0.00949 µM) 101% [middle of 10 runs]; (compound 0.03 µM) 15.2% [middle of 10 runs]; (compound 0.0949 µM) 1.9% [middle of 9 runs]; (compound 0.3 µM) 1.83% [middle of 10 runs]. The concentration for half-maximal inhibition (IC50) (compound alone, run of 10/17/2019) was 19.4 nM [middle of 5 runs] and the 50% inhibitory concentration (IC50) under setting [1] is 18.8 nM [middle of 4 runs].

For the compound `CNCc1ccc(-c2cc(-c3nc(-c4ccc(S(=O)(=O)C(C)C)cc4)cnc3N)on2)cc1`, the viability, T/C is 103% (2×) and 109% (compound 0.00949 µM); 108% and 117% and 107% (compound 0.03 µM); 110% and 112% and 105% (compound 0.0949 µM); 107% and 103% (2×) (compound 0.3 µM); 0.28% and 0.55% and 0.27% (compound 0.949 µM); 0.18% and 0.53% and 0.23% (compound 3 µM). In addition, the IC50 (curve of compound) was 555 nM and 545 nM and 542 nM.

For `COc1cc(C)[nH]c(=O)c1CN1CCc2c(Cl)cc(C(OC)C3COC3)c(Cl)c2C1=O` (configuration not stated), the viability, T/C by setting is: (compound 0.0316 µM) 97.7% and 96.7% and 96.6%; (compound 0.1 µM) 94.9% and 102% and 98.6%; (compound 0.316 µM) 82.7% and 91.7% and 95.5%; (compound 1 µM) 93.9% and 89.7% and 90.5%; (compound 3.16 µM) 95.1% and 83.6% and 94.9%; (compound 10 µM) 93% and 92.8% and 93.6%. The IC50 (curve of compound) was over 10000 nM.

`COc1cc2c(cc1O)CCNC21CSC2c3c(OC(C)=O)c(C)c4c(c3C(COC1=O)N1C(O)C3Cc5cc(C)c(OC)c(O)c5C(C21)N3C)OCO4` (configuration not stated): the viability, T/C is 106% [middle of 10 runs] (compound 30 pM); 107% [middle of 10 runs] (compound 94.9 pM); 105% [middle of 10 runs] (compound 0.0003 µM); 0.29% [middle of 9 runs] (compound 0.000949 µM); 0.17% [middle of 8 runs] (compound 0.003 µM). The IC50 under setting [1] is 0.548 nM [middle of 9 runs].

Consider `Cc1cc(C)c(CNC(=O)c2cc(-c3ccc(CN4CCOCC4)cc3)cc3c2cnn3C2CCCC2)c(=O)[nH]1`, for which the viability, T/C reads like this: (compound 0.0316 µM) 104% and 106% and 95.4%; (compound 0.1 µM) 95.6% and 106% and 114%; (compound 0.316 µM) 99.8% and 99.5% and 103%; (compound 1 µM) 102% and 97.1% and 101%; (compound 3.16 µM) 98.2% and 112% and 109%; (compound 10 µM) 113% and 108% and 114%. Moreover, where the note is “curve of compound”, the IC50 was over 10000 nM.

In the case of `Cc1sc2c(c1C)C(c1ccc(Cl)cc1)=NC(CC(=O)Nc1ccc(O)cc1)c1nnc(C)n1-2` (configuration not stated), the viability, T/C runs as follows: (compound 0.00949 µM) 113% and 114% and 104%; (compound 0.03 µM) 113% and 116% and 107%; (compound 0.0949 µM) 116% and 126% and 112%; (compound 0.3 µM) 86.4% and 108% and 84.2%; (compound 0.949 µM) 41% and 29% and 17.1%; (compound 3 µM) 4.42% and 2.62% and 6.59%. The IC50 (curve of compound) was 747 nM and 699 nM and 539 nM.

`Cn1ncnc1[C@H]1c2n[nH]c(=O)c3cc(F)cc(c23)N[C@@H]1c1ccc(F)cc1`: the viability, T/C is 112% and 99.5% and 92.6% (compound 0.00949 µM); 101% and 104% and 107% (compound 0.03 µM); 98.5% and 97% and 105% (compound 0.0949 µM); 97.8% and 95.6% and 94.2% (compound 0.3 µM); 2.74% and 25.4% and 16.7% (compound 0.949 µM); 2.53% and 1.95% and 1.33% (compound 3 µM). For the same compound, the IC50 (curve of compound) was 536 nM and 633 nM and 579 nM.
